# Reference: US10035790B2, “RORγ modulators” (BRISTOL-MYERS SQUIBB COMPANY, priority 2012, dated 2018)
# Target: T1, ligand binding domain of human RORγ (A262-S507) (Homo sapiens, UniProt P51449)
# T1 construct: made in house; host or cells: E. coli
# T1 sequence (P51449 262-507): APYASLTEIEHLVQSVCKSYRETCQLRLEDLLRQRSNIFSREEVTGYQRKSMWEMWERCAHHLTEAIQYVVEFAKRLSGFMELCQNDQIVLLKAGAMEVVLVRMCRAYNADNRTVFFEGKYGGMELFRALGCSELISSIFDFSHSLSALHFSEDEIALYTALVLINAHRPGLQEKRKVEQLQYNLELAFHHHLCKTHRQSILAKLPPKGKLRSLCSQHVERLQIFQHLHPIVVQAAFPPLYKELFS
# Assay: General RORγ SPA binding assay (competition with [3H]25-hydroxycholesterol)
# Settings: RORγ SPA binding assay, inhibition of [3H]25-hydroxycholesterol binding; read-out: IC50
# Experimental: Example 2 General RORγ SPA Binding Assay
# The binding of potential ligands to RORγ is measured by competition with [^3H]25-hydroxycholesterol using a scintillation proximity assay (SPA) binding assay. The ligand binding domain of human RORγ (A262-S507) with an N-terminal His tag is expressed in E. coli and purified using nickel affinity chromotography. 50 nM RORγ (A262-S507) is incubated with test compound at varying concentrations for 15 min at room temperature in PBS buffer containing 0.5% fatty acid free BSA. […] of [^3H]25-hydroxycholesterol is then added, and the reaction is incubated for 15 min. 4 mg/mL of Ysi Copper HIS-TAG SPA Beads (Perkin Elmer) are added, and the mixture is incubated for 30 min. The reaction is read on a MicroBeta Trilux scintillation plate reader (Perkin Elmer). IC50 values are determined from the percentage inhibition of [^3H]25-hydroxycholesterol binding.
row,IC50 [nM],Compound
1,6.7,"CCc1ncc(C(=O)NCc2cccc(Cl)c2)c(C2CCN(C(=O)Cc3c(F)cccc3F)CC2)n1 [Compound A48, N-(3-chlorobenzyl)-4-(1-(2-(2,6-difluorophenyl)acetyl)piperidin-4-yl)-2-ethylpyrimidine-5-carboxamide]"
2,7.1,"Cc1ncc(C(=O)NCc2cccc(C#N)c2)c(C2CCN(C(=O)Cc3c(F)cccc3F)CC2)n1 [Compound A50, N-(3-cyanobenzyl)-4-(1-(2-(2,6-difluorophenyl)acetyl)piperidin-4-yl)-2-methylpyrimidine-5-carboxamide]"
3,7.5,"COc1cc(CNC(=O)c2cnc(C)nc2C2CCN(C(=O)Cc3c(F)cccc3F)CC2)cc(Cl)n1 [Compound A52, N-((2-chloro-6-methoxypyridin-4-yl)methyl)-4-(1-(2-(2,6-difluorophenyl)acetyl)piperidin-4-yl)-2-methylpyrimidine-5-carboxamide]"
4,19.2,"Cc1ncc(C(=O)NCc2ccnc(C#N)c2)c(C2CCN(C(=O)Cc3c(F)cccc3F)CC2)n1 [Compound A55, N-((2-cyanopyridin-4-yl)methyl)-4-(1-(2-(2,6-difluorophenyl)acetyl)piperidin-4-yl)-2-methylpyrimidine-5-carboxamide]"

# Further lines, the molecule ahead of its results:
row,Compound,IC50 [nM]
1,"O=C(NCc1cccc(Cl)c1)c1cnc(C2CC2)nc1C1CCN(C(=O)Cc2c(F)cccc2F)CC1 [Compound A45, N-(3-chlorobenzyl)-2-cyclopropyl-4-(1-(2-(2,6-difluorophenyl)acetyl)piperidin-4-yl)pyrimidine-5-carboxamide]",6
2,"Cc1ncc(C(=O)NCc2cccc(C(F)(F)F)c2)c(C2CCN(C(=O)Cc3c(F)cccc3F)CC2)n1 [Compound A46, 4-(1-(2-(2,6-difluorophenyl)acetyl)piperidin-4-yl)-2-methyl-N-(3-(trifluoromethyl)benzyl)pyrimidine-5-carboxamide]",6.1
3,"Cc1ncc(C(=O)NCc2ccnc(C(F)(F)F)c2)c(C2CCN(C(=O)Cc3c(F)cccc3F)CC2)n1 [Compound A47, 4-(1-(2-(2,6-difluorophenyl)acetyl)piperidin-4-yl)-2-methyl-N-((2-(triflnoromethyl)pyridin-4-yl)methyl)pyrimidine-5-carboxamide]",6.3
4,"Cc1ncc(C(=O)NCc2cc(Cl)nc(Cl)c2)c(C2CCN(C(=O)Cc3c(F)cccc3F)CC2)n1 [Compound A49, N-((2,6-dichloropyridin-4-yl)methyl)-4-(1-(2-(2,6-difluorophenyl)acetyl)piperidin-4-yl)-2-methylpyrimidine-5-carboxamide]",6.8
5,"Cc1ncc(C(=O)NCc2cc(Cl)cc(Cl)c2)c(C2CCN(C(=O)Cc3c(F)cccc3F)CC2)n1 [Compound A51, N-(3,5-dichlorobenzyl)-4-(1-(2-(2,6-difluorophonyl)acetyl)piperidin-4-yl)-2-methylpyrimidine-5-carboxamide]",7.2
6,"Cc1ncc(C(=O)NCc2cccc(OC(F)(F)F)c2)c(C2CCN(C(=O)Cc3c(F)cccc3F)CC2)n1 [Compound A53, 4-(1-(2-(2,6-difluorophenyl)acetyl)piperidin-4-yl)-2-methyl-N-(3-(trifluoromethoxy)benzyl)pyrimidine-5-carboxamide]",8.1
7,"Cc1ncc(C(=O)NCc2cccc(Cl)c2F)c(C2CCN(C(=O)Cc3c(F)cccc3F)CC2)n1 [Compound A54, N-(3-chloro-2-fluorobenzyl)-4-(1-(2-(2,6-ditluorophenyl)acetyl)piperidin-4-yl)-2-methylpyrimidine-5-carboxamide]",13.9
8,"Cc1ncc(C(=O)NCc2ccnc(Cl)c2)c(C2CCN(C(=O)Cc3c(F)cccc3F)CC2)n1 [Compound A56, N-((2-chloropyridin-4-yl)methyl)-4-(1-(2-(2,6-difluorophenyl)acetyl)piperidin-4-yl)-2-methylpyrimidine-5-carboxamide]",19.3
9,"Cc1cc(C)cc(CNC(=O)c2cncnc2C2CCN(C(=O)Cc3c(F)cccc3F)CC2)c1 [Compound A57, 4-(1-(2-(2,6-difluorophenyl)acetyl)piperidin-4-yl)-N-(3,5-dimethylbenzyl)pyrimidine-5-carboxamide]",21.8
